Test results taken from patent publication US20250136607A1 (REGOR PHARMACEUTICALS, INC., priority 2021, published 2025).
Like-named read-outs stand apart in the source and are kept apart here.

Target: Protein arginine deiminase 4 (PAD4) (Homo sapiens, UniProt Q9UM07)
Experiment: PAD4 ammonia release assay
Assay type: biochemical
In short: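 PAD4 (20 nM, 2× working solution) was preincubated with compound for 15 min at RT in 100 mM HEPES pH 8.0, 2 mM CaCl2, 50 mM NaCl, 0.1 mM TCEP, BSA at 1.25% DMSO. BAEE (600 μM, 2× mix) reacted 60 min, then OPA/DTT/EDTA detection for 120 min. IC50 came from a 4-parameter fit, normalized to 50 μM reference (100%) and DMSO (0%).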

[1] = PAD4 activity comparison, read-out: PAD4 Ammonia assay IC50
[2] = PAD4 ammonia release assay, BAEE substrate, 60 min at RT, read-out: Average IC50 Abs

Sequence of Protein arginine deiminase 4 (PAD4) (Q9UM07 whole entry): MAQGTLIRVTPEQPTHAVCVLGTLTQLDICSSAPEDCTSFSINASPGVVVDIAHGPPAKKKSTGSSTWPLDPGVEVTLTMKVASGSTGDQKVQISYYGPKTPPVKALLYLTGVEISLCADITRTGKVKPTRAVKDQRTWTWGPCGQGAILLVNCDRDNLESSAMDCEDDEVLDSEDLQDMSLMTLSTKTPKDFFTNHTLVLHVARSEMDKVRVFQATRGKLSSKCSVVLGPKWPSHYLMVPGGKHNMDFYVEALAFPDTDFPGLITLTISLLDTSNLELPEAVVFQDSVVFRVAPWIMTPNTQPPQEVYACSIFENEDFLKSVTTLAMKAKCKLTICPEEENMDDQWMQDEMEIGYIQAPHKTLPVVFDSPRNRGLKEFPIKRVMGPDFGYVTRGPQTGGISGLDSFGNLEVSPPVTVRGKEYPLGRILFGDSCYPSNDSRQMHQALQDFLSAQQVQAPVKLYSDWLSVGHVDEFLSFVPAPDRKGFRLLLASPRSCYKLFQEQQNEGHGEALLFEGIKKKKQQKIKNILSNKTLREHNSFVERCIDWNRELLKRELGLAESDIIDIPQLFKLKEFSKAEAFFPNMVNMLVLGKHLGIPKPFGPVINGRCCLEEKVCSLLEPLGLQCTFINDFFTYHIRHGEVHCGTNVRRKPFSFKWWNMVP

Row | Compound | IC50 [1] [µM] | IC50 [2] [µM]
1 | Cn1c(-c2cc3cccc4c3n2CCN4)nc2cc(C(=O)N3CCC[C@@H](N)C3)ccc21 [Example 166, (R)-(3-aminopiperidin-1-yl)(2-(2,3-dihydro-1H-pyrrolo[1,2,3-de]quinoxalin-5-yl)-1-methyl-1H-benzo[d]imidazol-5-yl)methanone] | 9.53 | > 5
2 | COc1cc(C(=O)N2CC(F)(F)C3(CNC3)C2)cc2nc(-c3cc4cccc5c4n3CCN5CCCO)n(CC3CC3)c12 [Example 57, (1-(cyclopropylmethyl)-2-(1-(3-hydroxypropyl)-2,3-dihydro-1H-pyrrolo[1,2,3-de]quinoxalin-5-yl)-7-methoxy-1H-benzo[d]imidazol-5-yl)(8,8-difluoro-2,6-diazaspiro[3.4]octan-6-yl)methanone] |  | > 5
3 | COc1cc(C(=O)N2CCC3CC3(N)C2)cc2nc(-c3cc4cccc5c4n3CCN5CCCO)n(CC3CC3)c12 (stereo not shown) [Example 55, (1-amino-3-azabicyclo[4.1.0]heptan-3-yl)(1-(cyclopropylmethyl)-2-(1-(3-hydroxypropyl)-2,3-dihydro-1H-pyrrolo[1,2,3-de]quinoxalin-5-yl)-7-methoxy-1H-benzo[d]imidazol-5-yl)methanone] |  | 0.5 to 5
4 | CCC1CC(=O)c2cccc3cc(-c4nc5cc(C(=O)N6C[C@H]7CC[C@@H]6[C@@H]7N)cc(F)c5n4C)n1c23 (stereo partly drawn) [Example 139, 2-(5-((1R,4R,7R)-7-amino-2-azabicyclo[2.2.1]heptane-2-carbonyl)-7-fluoro-1-methyl-1H-benzo[d]imidazol-2-yl)-4-ethyl-4,5-dihydro-6H-pyrrolo[3,2,1-ij]quinolin-6-one] |  | 0.5 to 5
5 | Cn1c(-c2cc3cccc4c3n2CCN4)nc2cc(C(=O)N3C[C@H]4CC[C@@H]3[C@@H]4N)ccc21 [Example 168, ((1R,4R,7R)-7-amino-2-azabicyclo[2.2.1]heptan-2-yl)(2-(2,3-dihydro-1H-pyrrolo[1,2,3-de]quinoxalin-5-yl)-1-methyl-1H-benzo[d]imidazol-5-yl)methanone] | 2.31 | 0.5 to 5
6 | CCC1CNc2cccc3cc(-c4nc5cc(C(=O)N6C[C@H]7CC[C@@H]6[C@@H]7N)cnn5c4C)n1c23 (stereo partly drawn) [Example 138, [(1R,4R,7R)-7-amino-2-azabicyclo[2.2.1]heptan-2-yl]-[2-(11-ethyl-1,9-diazatricyclo[6.3.1.0^4,12]dodeca-2,4,6,8(12)-tetraen-2-yl)-3-methyl-imidazo[1,2-b]pyridazin-7-yl]methanone] |  | 0.5 to 5
7 | COc1cc(C(=O)N2C[C@H](N)C[C@@H](F)C2)cc2nc(-c3cc4cccc5c4n3CCN5CCCO)n(OC)c12 [Example 63, ((3R,5R)-3-amino-5-fluoropiperidin-1-yl)(2-(1-(3-hydroxypropyl)-2,3-dihydro-1H-pyrrolo[1,2,3-de]quinoxalin-5-yl)-1,7-dimethoxy-1H-benzo[d]imidazol-5-yl)methanone] |  | > 5
8 | COc1cc(C(=O)N2CCC[C@@H](N)C2)cc2nc(-c3cc4cccc5c4n3C(C)CN5)n(C)c12 (stereo partly drawn) [Example 65, ((R)-3-aminopiperidin-1-yl)(7-methoxy-1-methyl-2-(3-methyl-2,3-dihydro-1H-pyrrolo[1,2,3-de]quinoxalin-5-yl)-1H-benzo[d]imidazol-5-yl)methanone] | 2.6 | 0.5 to 5
9 | Cn1c(-c2cc3ccc(C(F)(F)F)c4c3n2C(C2CC2)CN4)nc2cc(C(=O)N3C[C@H]4CC[C@@H]3[C@@H]4N)cc(F)c21 (stereo partly drawn) [Example 121, [(1R,4R,7R)-7-amino-2-azabicyclo[2.2.1]heptan-2-yl]-[2-[11-cyclopropyl-7-(trifluoromethyl)-1,9-diazatricyclo[6.3.1.0^4,12]dodeca-2,4,6,8(12)-tetraen-2-yl]-7-fluoro-1-methyl-benzimidazol-5-yl]methanone] |  | ≤ 0.1
10 | COc1cc(C(=O)N2C[C@H]3CC[C@@H]2[C@@H]3N)cc2nc(-c3cc4cccc5c4n3CCN5CCO)n(C)c12 [Example 11, ((1R,4R,7R)-7-amino-2-azabicyclo[2.2.1]heptan-2-yl)(2-(1-(2-hydroxyethyl)-2,3-dihydro-1H-pyrrolo[1,2,3-de]quinoxalin-5-yl)-7-methoxy-1-methyl-1H-benzo[d]imidazol-5-yl)methanone] |  | 0.5 to 5
11 | Cn1c(-c2cc3cccc4c3n2[C@H](C2CC2)CN4CCCO)nc2cc(C(=O)N3C[C@H]4CC[C@@H]3[C@@H]4N)cc(F)c21 (single isomer, unassigned) [Example 113] |  | 0.5 to 5
12 | COc1cc(C(=O)N2CCC[C@@H](N)C2)cc2nc(-c3cc4cccc5c4n3CCN5C)n(C)c12 [Example 25] |  | > 5
13 | COc1cc(C(=O)N2C[C@H]3CC[C@@H]2[C@@H]3N)cc2nc(-c3cc4cccc5c4n3CCN5CCCNC(=O)NC3CC3)n(C)c12 [Example 6, 1-(3-(5-(5-((1R,4R,7R)-7-amino-2-azabicyclo[2.2.1]heptane-2-carbonyl)-7-methoxy-1-methyl-1H-benzo[d]imidazol-2-yl)-2,3-dihydro-1H-pyrrolo[1,2,3-de]quinoxalin-1-yl)propyl)-3-cyclopropylurea] |  | 0.5 to 5
14 | COc1cc(C(=O)N2CCC[C@@](C)(N)C2)cc2nc(-c3cc4cccc5c4n3CCN5CCCO)n(C)c12 [Example 16, (R)-(3-amino-3-methylpiperidin-1-yl)(2-(1-(3-hydroxypropyl)-2,3-dihydro-1H-pyrrolo[1,2,3-de]quinoxalin-5-yl)-7-methoxy-1-methyl-1H-benzo[d]imidazol-5-yl)methanone] |  | > 5
15 | CCC1CN(CCCO)c2cccc3cc(-c4nc5cc(C(=O)N6C[C@H]7CC[C@@H]6[C@@H]7N)c(F)c(F)c5n4C)n1c23 (stereo partly drawn) [Example 78, ((1R,4R,7R)-7-amino-2-azabicyclo[2.2.1]heptan-2-yl)(2-(3-ethyl-1-(3-hydroxypropyl)-2,3-dihydro-1H-pyrrolo[1,2,3-de]quinoxalin-5-yl)-6,7-difluoro-1-methyl-1H-benzo[d]imidazol-5-yl)methanone] |  | 0.5 to 5
16 | Cn1c(-c2cc3cccc4c3n2[C@H](C2CC2)CN4)nc2cc(C(=O)N3C[C@H]4CC[C@@H]3[C@@H]4N)cc(F)c21 (single isomer, unassigned) [Example 109] |  | 0.5 to 5
17 | CCC1C(=O)Nc2c(F)ccc3cc(-c4nc5cc(C(=O)N6C[C@H]7CC[C@@H]6[C@@H]7N)cc(F)c5n4C)n1c23 (stereo partly drawn) [Example 126, 5-(5-((1R,4R,7R)-7-amino-2-azabicyclo[2.2.1]heptane-2-carbonyl)-7-fluoro-1-methyl-1H-benzo[d]imidazol-2-yl)-3-ethyl-9-fluoro-1H-pyrrolo[1,2,3-de]quinoxalin-2(3H)-one] |  | 0.5 to 5
18 | C#CCn1c(-c2cc3cccc4c3n2C(CC)CN4CCCO)nc2cc(C(=O)N3C[C@H]4CC[C@@H]3[C@@H]4N)cc(OC)c21 (stereo partly drawn) [Example 90, ((1R,4R,7R)-7-amino-2-azabicyclo[2.2.1]heptan-2-yl)(2-(3-ethyl-1-(3-hydroxypropyl)-2,3-dihydro-1H-pyrrolo[1,2,3-de]quinoxalin-5-yl)-7-methoxy-1-(prop-2-yn-1-yl)-1H-benzo[d]imidazol-5-yl)methanone] |  | 0.1 to 0.5
19 | CCC1CN(CCC(C)(C)O)c2cccc3cc(-c4nc5cc(C(=O)N6C[C@H](N)C[C@@H](F)C6)cc(OC)c5n4C)n1c23 (stereo partly drawn) [Example 83, ((3R,5R)-3-amino-5-fluoropiperidin-1-yl)(2-(3-ethyl-1-(3-hydroxy-3-methylbutyl)-2,3-dihydro-1H-pyrrolo[1,2,3-de]quinoxalin-5-yl)-7-methoxy-1-methyl-1H-benzo[d]imidazol-5-yl)methanon] |  | 0.1 to 0.5
